In patent publication US11753411B2, “Substituted pyrazolo[1,5-a]pyrimidines as TYK2 pseudokinase ligands” (Ventyx Biosciences, Inc., priority 2019, dated 2023):

Test system: IFN-a/Jak1 Tyk2
Test: Co-stimulation assay in lysed whole blood: IFNa (JAK1/TYK2) stimulated STAT1 phosphorylation
Assay type: cell-based
Settings: Homo sapiens, 20 min, 100 ng/mL IFNa (with 10 ng/mL GM-CSF), pSTAT by flow cytometry
Procedure, shortened: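 Lysed human whole blood (RBC-lysed, resuspended in cRPMI) pre-incubated with compound 1 h at 37 °C, then stimulated 20 min with IFNa 100 ng/mL plus GM-CSF 10 ng/mL (final). Fixed, permeabilised, stained for pSTAT1 (PE) and pSTAT5 (AF488); flow cytometry read-out, ≥5,000–10,000 cells acquired.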

IC50 [nM] | Structure (SMILES)
< 1000 | CNc1cc(Nc2cccc3nccnc23)nc2c(NC(=O)N[C@@H]3C[C@@H]3F)cnn12 [Compound 44, 1-((1R,2S)-2-fluorocyclopropyl)-3-(7-(methylamino)-5-(quinoxalin-5-ylamino)pyrazolo[1,5-a]pyrimidin-3-yl)urea]
≥ 10000 | CNc1cc(Nc2cc(F)cc3c2OCCO3)nc2c(NC(=O)NCC3(C#N)CC3)cnn12 [Compound 180, 1-((1-cyanocyclopropyl)methyl)-3-(5-((7-fluoro-2,3-dihydrobenzo[b][1,4]dioxin-5-yl)amino)-7-(methylamino)pyrazolo[1,5-a]pyrimidin-3-yl)urea]
< 1000 | CNC(=O)Nc1cnn2c(NC)cc(Nc3cccc4cccnc34)nc12 [Compound 64, 1-methyl-3-(7-(methylamino)-5-(quinolin-8-ylamino)pyrazolo[1,5-a]pyrimidin-3-yl)urea]
< 1000 | CNc1cc(Nc2cccc3c2OCCO3)nc2c(NC(=O)N[C@@H]3C[C@@H]3C#N)cnn12 [Compound 45, 1-((1R,2S)-2-cyanocyclopropyl)-3-(5-((2,3-dihydrobenzo[b][1,4]dioxin-5-yl)amino)-7-(methylamino)pyrazolo[1,5-a]pyrimidin-3-yl)urea]
< 1000 | CNc1cc(Nc2cccc3c2OCCO3)nc2c(NC(=O)NCCOC)cnn12 [Compound 112, 1-(5-((2,3-dihydrobenzo[b][1,4]dioxin-5-yl)amino)-7-(methylamino)pyrazolo[1,5-a]pyrimidin-3-yl)-3-(2-methoxyethyl)urea]
1000 to 10000 | CNC(=O)Nc1cnn2c(NC)cc(Nc3cccc4c3OCCN4C)nc12 [Compound 62, 1-methyl-3-(5-((4-methyl-3,4-dihydro-2H-benzo[b][1,4]oxazin-8-yl)amino)-7-(methylamino)pyrazolo[1,5-a]pyrimidin-3-yl)urea]
1000 to 10000 | CNC(=O)Nc1cnn2c(NC)cc(Nc3cccc4c3OCC(=O)N4)nc12 [Compound 98, 1-methyl-3-(7-(methylamino)-5-((3-oxo-3,4-dihydro-2H-benzo[b][1,4]oxazin-8-yl)amino)pyrazolo[1,5-a]pyrimidin-3-yl)urea]
1000 to 10000 | CNC(=O)Nc1cnn2c(NC)cc(NC(=O)c3ccccc3)nc12 [Compound 167, N-(7-(methylamino)-3-(3-methylureido)pyrazolo[1,5-a]pyrimidin-5-yl)benzamide]
1000 to 10000 | CNc1cc(Nc2cc(F)cc3c2OCCO3)nc2c(NC(=O)NC3CS(=O)(=O)C3)cnn12 [Compound 126, 1-(1,1-dioxidothietan-3-yl)-3-(5-((7-fluoro-2,3-dihydrobenzo[b][1,4]dioxin-5-yl)amino)-7-(methylamino)pyrazolo[1,5-a]pyrimidin-3-yl)urea]
1000 to 10000 | CNC(=O)Nc1cnn2c(NC)cc(Nc3cccc(OC)c3OC)nc12 [Compound 97, 1-(5-((2,3-dimethoxyphenyl)amino)-7-(methylamino)pyrazolo[1,5-a]pyrimidin-3-yl)-3-methylurea]
< 1000 | CNC(=O)Nc1cnn2c(NC)cc(Nc3cccc4nccnc34)nc12 [Compound 166, 1-methyl-3-(7-(methylamino)-5-(quinoxalin-5-ylamino)pyrazolo[1,5-a]pyrimidin-3-yl)urea]
< 1000 | [2H]C([2H])([2H])Nc1cc(Nc2cc(F)cc3c2OC([2H])([2H])C([2H])([2H])O3)nc2c(NC(=O)N[C@@H]3C[C@@H]3F)cnn12 [Compound 181, 1-(5-((7-fluoro-2,3-dihydrobenzo[b][1,4]dioxin-5-yl-2,2,3,3-d4)amino)-7-((methyl-d3)amino)pyrazolo[1,5-a]pyrimidin-3-yl)-3-((1R,2S)-2-fluorocyclopropyl)urea]
< 1000 | CNc1cc(Nc2cc(F)cc3c2OCCO3)nc2c(NC(=O)NC3CCC3)cnn12 [Compound 105, 1-cyclobutyl-3-(5-((7-fluoro-2,3-dihydrobenzo[b][1,4]dioxin-5-yl)amino)-7-(methylamino)pyrazolo[1,5-a]pyrimidin-3-yl)urea]
< 1000 | CNC(=O)Nc1cnn2c(NC)cc(Nc3cc(C)ccc3OC)nc12 [Compound 68, 1-(5-((2-methoxy-5-methylphenyl)amino)-7-(methylamino)pyrazolo[1,5-a]pyrimidin-3-yl)-3-methylurea]
< 1000 | CNc1cc(Nc2cccc3c2OCCO3)nc2c(NC(=O)NC3CCCC3)cnn12 [Compound 108, 1-cyclopentyl-3-(5-((2,3-dihydrobenzo[b][1,4]dioxin-5-yl)amino)-7-(methylamino)pyrazolo[1,5-a]pyrimidin-3-yl)urea]
1000 to 10000 | CNC(=O)Nc1cnn2c(NC)cc(Nc3c(C)cccc3OC)nc12 [Compound 66, 1-(5-((2-methoxy-6-methylphenyl)amino)-7-(methylamino)pyrazolo[1,5-a]pyrimidin-3-yl)-3-methylurea]
1000 to 10000 | CNc1cc(Nc2cccc3c2OCCO3)nc2c(NC(=O)NCCCO)cnn12 [Compound 100, 1-(5-((2,3-dihydrobenzo[b][1,4]dixoin-5-y)amino)-7-(methylamino)pyrazolo[1,5-a]pyrimidin-3-yl)-3-(3-hydroxypropyl)urea]
1000 to 10000 | CNC(=O)Nc1cnn2c(NC)cc(Nc3cccc4c3OC(F)(F)O4)nc12 [Compound 115, 1-(5-((2,2-difluorobenzo[d][1,3]dioxol-4-yl)amino)-7-(methylamino)pyrazolo[1,5-a]pyrimidin-3-yl)-3-methylurea]
1000 to 10000 | CNc1cc(Nc2cc(OC)cc3c2OCCO3)nc2c(NC(=O)NC3CC3)cnn12 [Compound 84, 1-cyclopropyl-3-(5-((7-methoxy-2,3-dihydrobenzo[b][1,4]dioxin-5-yl)amino)-7-(methylamino)pyrazolo[1,5-a]pyrimidin-3-yl)urea]
< 1000 | CNc1cc(Nc2cccc3c2OCCO3)nc2c(NC(N)=O)cnn12 [Compound 10, 1-(5-((2,3-dihydrobenzo[b][1,4]dioxin-5-yl)amino)-7-(methylamino)pyrazolo[1,5-a]pyrimidin-3-yl)urea]

More lines, now with the values behind:

Structure (SMILES) | IC50 [nM]
CNc1cc(-c2cn(C3CCOCC3)c3ncccc23)nc2c(NC(=O)N[C@H]3CC[C@H]3O)cnn12 [Compound 56, 1-((1S,2R)-2-hydroxycyclobutyl)-3-(7-(methylamino)-5-(1-(tetrahydro-2H-pyran-4-yl)-1H-pyrrolo[2,3-b]pyridin-3-yl)pyrazolo[1,5-a]pyrimidin-3-yl)urea] | ≥ 10000
CNC(=O)Nc1cnn2c(NC)cc(Nc3ccccc3OC(F)(F)F)nc12 [Compound 168, 1-methyl-3-(7-(methylamino)-5-((2-(trifluoromethoxy)phenyl)amino)pyrazolo[1,5-a]pyrimidin-3-yl)urea] | 1000 to 10000
CNc1cc(Nc2cc(F)cc3c2OCCO3)nc2c(NC(=O)N[C@@H]3C[C@@H]3C#N)cnn12 [Compound 51, 1-((1R,2S)-2-cyanocyclopropyl)-3-(5-((7-fluoro-2,3-dihydrobenzo[b][1,4]dioxin-5-yl)amino)-7-(methylamino)pyrazolo[1,5-a]pyrimidin-3-yl)urea] | < 1000
CNc1cc(Nc2cccc3c2OCCO3)nc2c(NC(=O)NC3CC(C)(O)C3)cnn12 (stereo not shown) [Compound 48, 1-(5-((2,3-dihydrobenzo[b][1,4]dioxin-5-yl)amino)-7-(methylamino)pyrazolo[1,5-a]pyrimidin-3-yl)-3-(3-hydroxy-3-methylcyclobutyl)urea] | ≥ 10000
CNC(=O)Nc1cnn2c(NC)cc(Nc3cccnc3OC)nc12 [Compound 164, 1-(5-((2-methoxypyridin-3-yl)amino)-7-(methylamino)pyrazolo[1,5-a]pyrimidin-3-yl)-3-methylurea] | < 1000
CNC(=O)Nc1cnn2c(NC)cc(Nc3ccccc3S(C)(=O)=O)nc12 [Compound 156, 1-methyl-3-(7-(methylamino)-5-((2-(methylsulfonyl)phenyl)amino)py-razolo[1,5-a]pyrimidin-3-yl)urea] | ≥ 10000
CNC(=O)Nc1cnn2c(NC)cc(Nc3cccc4occc34)nc12 [Compound 104, 1-(5-(benzofuran-4-ylamino)-7-(methylamino)pyrazolo[1,5-a]pyrimidin-3-yl)-3-methylurea] | < 1000
CNc1cc(Nc2cccc3cccnc23)nc2c(NC(=O)NC3CC3O)cnn12 (stereo not shown) [Compound 31, 1-(2-hydroxycyclopropyl)-3-(7-(methylamino)-5-(quinolin-8-ylamino)pyrazolo[1,5-a]pyrimidin-3-yl)urea] | ≥ 10000
CNc1cc(Nc2cccc3c2OCCO3)nc2c(NC(=O)NC3CCC3C#N)cnn12 (stereo not shown) [Compound 43, 1-(2-cyanocyclobutyl)-3-(5-((2,3-dihydrobenzo[b][1,4]dioxin-5-yl)amino)-7-(methylamino)pyrazolo[1,5-a]pyrimidin-3-yl)urea] | 1000 to 10000
CNc1cc(Nc2cc(F)cc3c2OCCO3)nc2c(NC(N)=O)cnn12 [Compound 124, 1-(5-((7-fluoro-2,3-dihydrobenzo[b][1,4]dioxin-5-yl)amino)-7-(methylamino)pyrazolo[1,5-a]pyrimidin-3-yl)urea] | < 1000
CNc1cc(Nc2cccc3nccnc23)nc2c(NC(=O)NCC#N)cnn12 [Compound 132, 1-(cyanomethyl)-3-(7-(methylamino)-5-(quinoxalin-5-ylamino)pyrazolo[1,5-a]pyrimidin-3-yl)urea] | < 1000
CNc1cc(Nc2cc(C#N)cc3c2OCCO3)nc2c(NC(=O)NC3CC3)cnn12 [Compound 89, 1-(5-((7-cyano-2,3-dihydrobenzo[b][1,4]dioxin-5-yl)amino)-7-(methylamino)pyrazolo[1,5-a]pyrimidin-3-yl)-3-cyclopropylurea] | < 1000
CNc1cc(Nc2cc(F)cc3c2OCCO3)nc2c(NC(=O)NCC#N)cnn12 [Compound 114, 1-(cyanomethyl)-3-(5-((7-fluoro-2,3-dihydrobenzo[b][1,4]dioxin-5-yl)amino)-7-(methylamino)pyrazolo[1,5-a]pyrimidin-3-yl)urea] | < 1000
CNc1cc(Nc2c(F)c(F)cc(F)c2F)nc2c(NC(=O)N[C@@H]3C[C@@H]3F)cnn12 [Compound 38, 1-((1R,2S)-2-fluorocyclopropyl)-3-(7-(methylamino)-5-((2,3,5,6-tetrafluorophenyl)amino)pyrazolo [1,5-a]pyrimidin-3-yl)urea] | 1000 to 10000
